From patent US4335041A, “High sensitivity assays for angiotensin converting enzyme” (Ventrex Laboratories, Inc., priority 1980, dated 1982)
Peptide text beside a SMILES is read from it. * marks the point of attachment. Bz = O=C(c1ccccc1)*

Columns and labels:
[1] = target: T1, Guinea pig urinary ACE (Cavia porcellus, UniProt H0UWL7); assay: Sulfate and chloride effects on substrate hydrolysis (Example 3); format: biochemical
T1 sequence (H0UWL7 33-1302): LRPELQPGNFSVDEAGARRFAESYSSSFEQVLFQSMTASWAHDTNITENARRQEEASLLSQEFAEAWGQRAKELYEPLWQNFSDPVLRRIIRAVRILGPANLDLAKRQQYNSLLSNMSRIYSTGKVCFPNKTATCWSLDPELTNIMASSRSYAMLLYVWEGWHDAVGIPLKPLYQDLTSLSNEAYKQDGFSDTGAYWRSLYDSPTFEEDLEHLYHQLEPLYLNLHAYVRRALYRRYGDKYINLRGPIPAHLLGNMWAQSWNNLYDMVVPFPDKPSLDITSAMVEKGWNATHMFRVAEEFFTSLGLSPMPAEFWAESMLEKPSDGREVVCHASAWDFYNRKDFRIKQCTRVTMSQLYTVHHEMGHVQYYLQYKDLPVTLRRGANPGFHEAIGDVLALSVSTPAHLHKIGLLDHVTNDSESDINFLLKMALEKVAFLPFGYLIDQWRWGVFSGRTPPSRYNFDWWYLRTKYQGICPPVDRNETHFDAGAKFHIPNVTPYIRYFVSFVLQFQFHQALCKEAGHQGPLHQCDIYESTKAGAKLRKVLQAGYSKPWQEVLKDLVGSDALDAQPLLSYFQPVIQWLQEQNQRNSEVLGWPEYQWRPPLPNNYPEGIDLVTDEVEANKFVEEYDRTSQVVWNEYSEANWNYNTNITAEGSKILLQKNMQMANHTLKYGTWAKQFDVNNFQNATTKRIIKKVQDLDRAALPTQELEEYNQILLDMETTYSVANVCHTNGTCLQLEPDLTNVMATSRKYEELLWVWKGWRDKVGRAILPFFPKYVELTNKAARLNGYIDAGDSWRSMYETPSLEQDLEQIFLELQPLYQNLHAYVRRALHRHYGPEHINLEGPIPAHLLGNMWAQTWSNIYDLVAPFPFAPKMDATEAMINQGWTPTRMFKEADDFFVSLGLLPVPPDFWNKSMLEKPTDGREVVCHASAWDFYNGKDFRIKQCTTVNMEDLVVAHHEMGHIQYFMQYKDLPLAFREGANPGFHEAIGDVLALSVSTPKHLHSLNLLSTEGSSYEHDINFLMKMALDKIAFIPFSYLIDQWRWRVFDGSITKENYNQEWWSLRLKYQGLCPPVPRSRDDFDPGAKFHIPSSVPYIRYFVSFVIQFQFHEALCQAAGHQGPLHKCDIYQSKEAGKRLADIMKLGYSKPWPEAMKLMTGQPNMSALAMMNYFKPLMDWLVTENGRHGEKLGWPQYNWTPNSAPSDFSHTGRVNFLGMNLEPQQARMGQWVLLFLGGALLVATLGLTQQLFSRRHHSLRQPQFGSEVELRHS
Experimental: ^3 H-HipHisLeu prepared as described in Example 2 and ^3 H-benzoylPheAlaPro, prepared as described in Example 5, were used as substrates for Guinea pig urinary ACE, prepared as described in Example 1. […] All incubations were carried out at 37° C. for 10 minutes. Enzyme was diluted in the reaction buffer to provide not more than 15% hydrolysis during the 10 minute incubation. Enzyme, 50 μl, was mixed with 50 μl ^3 H-HipHisLeu, 0.2 mM, having 150,000 total counts pr minute (cpm), or with ^3 H-benzoylPheAlaPro having 10,000 cpm to 200,000 cpm. Reactions were carried out in the presence of 0.1 M NaCl or in the absence of NaCl, with varying amounts of Na2 SO4 added.

[2] = tested on: ACE from rabbit lung; settings: sodium chloride removed; cited from earlier work
[3] = target: T2, Guinea pig serum ACE (Cavia porcellus, UniProt H0UWL7); assay: Kinetics of sulfate-stimulated HipHisLeu hydrolysis (Example 4); format: biochemical
T2 sequence (H0UWL7 33-1234): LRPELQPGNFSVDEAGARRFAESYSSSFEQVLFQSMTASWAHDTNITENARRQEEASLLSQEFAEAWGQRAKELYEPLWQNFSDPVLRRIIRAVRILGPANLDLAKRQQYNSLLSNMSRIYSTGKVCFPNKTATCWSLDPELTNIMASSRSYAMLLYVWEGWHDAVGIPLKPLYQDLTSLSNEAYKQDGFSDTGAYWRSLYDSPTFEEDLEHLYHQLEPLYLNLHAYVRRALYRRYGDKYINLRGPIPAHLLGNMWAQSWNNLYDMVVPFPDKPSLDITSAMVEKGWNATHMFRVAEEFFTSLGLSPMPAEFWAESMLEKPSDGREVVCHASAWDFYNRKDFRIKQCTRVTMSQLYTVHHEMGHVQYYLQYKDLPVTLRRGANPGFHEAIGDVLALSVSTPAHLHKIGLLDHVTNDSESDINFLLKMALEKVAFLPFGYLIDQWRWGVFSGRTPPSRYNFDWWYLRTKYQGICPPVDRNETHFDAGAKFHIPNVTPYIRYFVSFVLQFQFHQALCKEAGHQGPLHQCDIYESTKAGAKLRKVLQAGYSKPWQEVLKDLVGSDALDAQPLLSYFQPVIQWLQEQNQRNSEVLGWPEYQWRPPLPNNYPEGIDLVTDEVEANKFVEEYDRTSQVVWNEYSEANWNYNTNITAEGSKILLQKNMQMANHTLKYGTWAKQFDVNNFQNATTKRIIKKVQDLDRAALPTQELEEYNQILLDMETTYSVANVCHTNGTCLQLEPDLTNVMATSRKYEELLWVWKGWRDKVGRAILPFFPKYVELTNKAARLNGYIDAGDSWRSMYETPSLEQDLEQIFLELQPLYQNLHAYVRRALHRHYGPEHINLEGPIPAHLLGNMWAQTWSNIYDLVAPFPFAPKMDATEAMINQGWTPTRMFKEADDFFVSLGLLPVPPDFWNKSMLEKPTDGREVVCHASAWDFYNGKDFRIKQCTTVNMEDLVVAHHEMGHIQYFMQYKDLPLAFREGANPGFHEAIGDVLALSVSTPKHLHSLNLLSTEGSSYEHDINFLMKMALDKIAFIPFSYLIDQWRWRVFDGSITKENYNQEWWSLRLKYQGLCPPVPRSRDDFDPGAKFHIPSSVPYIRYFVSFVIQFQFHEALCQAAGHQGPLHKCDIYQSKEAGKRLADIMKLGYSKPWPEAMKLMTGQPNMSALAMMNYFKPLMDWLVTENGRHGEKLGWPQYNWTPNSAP
Experimental: In each assay, 50 μl of Guinea pig serum diluted 1-20 (v/v) in the reaction buffer was mixed with 50 μl of buffer containing sufficient ^3 H-HipHisLeu to provide approximately 100,000 cpm total, together with sufficient unlabeled HipHisLeu to produce the desired substrate concentrations, as indicated in Table 2. […] The reaction mixture was then extracted with 1 ml ethyl acetate. 500 μl of the ethyl acetate fraction was sampled and counted in a scintillation counter.

[4] = tested on: ACE; assay: Response of 3H-benzoylPheAlaPro hydrolysis to added NaCl; format: biochemical; settings: 0.05 M added sodium chloride, 0.05 M Hepes pH 8.0
Experimental: An even more sensitive assay for ACE activity has been developed using the novel compound ^3 H-benzoylPheAlaPro as substrate. This new substrate can be used to assay ACE in human urine in incubations as short as 15 minutes. The response of this substrate to ions is strikingly different from the response of HipHisLeu. […] This difficulty has been solved by the proper choice of extracting solvent. While a variety of organic solvents may be suitable for the extraction step, it is preferred to employ toluene. Approximately 88% of ^3 H-benzoylPhe enters the toluene phase while only 6% of the unhydrolyzed substrate enters the toluene phase, when toluene and the acidified reaction mixture are in approximately equal volumes at room temperature.

[5] = Solvent extraction from acidified reaction mixture; format: physicochemical
Text: While a variety of organic solvents may be suitable for the extraction step, it is preferred to employ toluene.

[6] = tested on: enzyme isolated from hog lung; settings: cited from earlier work
[7] = sulfate 0.6 M, 0.1 M chloride, pH 8

CC(C)C[C@H](NC(=O)[C@H](Cc1c[nH]cn1)NC(=O)CNC(=O)c1ccccc1)C(=O)O [HipHisLeu] (Bz-Gly-His-Leu-OH)
Reaction Velocity - Percent of Substrate Hydrolyzed in 10 minutes ([1]; 0.05M Hepes pH 8.0, 0.0M NaCl, Na2SO4 0): 0% | Reaction Velocity - Percent of Substrate Hydrolyzed in 10 minutes ([1]; 0.05M Hepes pH 8.0, 0.0M NaCl, Na2SO4 0.1): 0% | Reaction Velocity - Percent of Substrate Hydrolyzed in 10 minutes ([1]; 0.05M Hepes pH 8.0, 0.0M NaCl, Na2SO4 0.2): 0% | Reaction Velocity - Percent of Substrate Hydrolyzed in 10 minutes ([1]; 0.05M Hepes pH 8.0, 0.0M NaCl, Na2SO4 0.3): 0% | Reaction Velocity - Percent of Substrate Hydrolyzed in 10 minutes ([1]; 0.05M Hepes pH 8.0, 0.0M NaCl, Na2SO4 0.4): 0.1% | Reaction Velocity - Percent of Substrate Hydrolyzed in 10 minutes ([1]; 0.05M Hepes pH 8.0, 0.0M NaCl, Na2SO4 0.5): 0.1% | Reaction Velocity - Percent of Substrate Hydrolyzed in 10 minutes ([1]; 0.05M Hepes pH 8.0, 0.0M NaCl, Na2SO4 0.6): 0.25% | Reaction Velocity - Percent of Substrate Hydrolyzed in 10 minutes ([1]; 0.05M Hepes pH 8.0, 0.0M NaCl, Na2SO4 0.7): 0.25% | Reaction Velocity - Percent of Substrate Hydrolyzed in 10 minutes ([1]; 0.05M Hepes pH 8.0, 0.0M NaCl, Na2SO4 0.75): 0.25% | Reaction Velocity - Percent of Substrate Hydrolyzed in 10 minutes ([1]; 0.05M Hepes pH 8.0, 0.0M NaCl, Na2SO4 0.8): 0.25% | Reaction Velocity - Percent of Substrate Hydrolyzed in 10 minutes ([1]; 0.05M Hepes pH 8.0, 0.0M NaCl, Na2SO4 0.9): 0.7% | Reaction Velocity - Percent of Substrate Hydrolyzed in 10 minutes ([1]; 0.05M Hepes pH 8.0, 0.0M NaCl, Na2SO4 1.2): 3.9% | Reaction Velocity - Percent of Substrate Hydrolyzed in 10 minutes ([1]; 0.05M Hepes pH 8.0, 0.1M NaCl, Na2SO4 0): 0.3% | Reaction Velocity - Percent of Substrate Hydrolyzed in 10 minutes ([1]; 0.05M Hepes pH 8.0, 0.1M NaCl, Na2SO4 0.4): 4.1% | Reaction Velocity - Percent of Substrate Hydrolyzed in 10 minutes ([1]; 0.05M Hepes pH 8.0, 0.1M NaCl, Na2SO4 0.6): 8.3% | inhibition on removal of sodium chloride from the reaction medium [2]: 92% | reduction of Km by sulfate ([3]; 0.75 M Na2SO4 in reaction mixture containing 0.1 M NaCl): about 15 fold | decrease in Km by sulfate ([3]; sulfate ion 0.75-1.1 M): 14 fold

C[C@H](NC(=O)[C@H](Cc1ccccc1)NC(=O)c1ccccc1)C(=O)N1CCC[C@H]1C(=O)O [benzoylPheAlaPro, benzoyl-Phe-Ala-Pro] (Bz-Phe-Ala-Pro-OH)
Reaction Velocity - Percent of Substrate Hydrolyzed in 10 minutes ([1]; 0.05 Hepes pH 8.0, 0.1 M NaCl, Na2SO4 0): 4.4% | Reaction Velocity - Percent of Substrate Hydrolyzed in 10 minutes ([1]; 0.05 Hepes pH 8.0, 0.1 M NaCl, Na2SO4 0.1): 5.0% | Reaction Velocity - Percent of Substrate Hydrolyzed in 10 minutes ([1]; 0.05 Hepes pH 8.0, 0.1 M NaCl, Na2SO4 0.5): 5.6% | increase of apparent reaction velocity by added NaCl [4]: approximately 3 fold | extraction into ethyl acetate ([5]; reaction terminated with dilute hydrochloric acid): extracted almost quantitatively | fraction entering the toluene phase ([5]; toluene and acidified reaction mixture in approximately equal volumes, room temperature): 6%

O=C(O)CNC(=O)CNC(=O)CNC(=O)c1ccccc1 [HipGlyGly] (Bz-Gly-Gly-Gly-OH)
hydrolysis in the absence of NaCl ([6]; no NaCl, Na2SO4 0.001 M to 0.6 M): no hydrolysis | decrease of Km by sulfate [6, 7]: about 15% | increase of Vmax by sulfate [6, 7]: about 5 fold
